In paper PMC10649961, “Novel Mitochondria-Targeted Amphiphilic Aminophosphonium Salts and Lipids Nanoparticles: Synthesis, Antitumor Activity and Toxicity” (Nanomaterials, 2023):
Where two headings read alike, the source gives them in different places.

Assays:
DU-145 [1] = settings: calculated relative to the cell line WI38 (a)
[2] = test system: Escherichia coli ATCC 25922; test: Antimicrobial activity, serial microdilutions, Ec; format: cell-based; design: key to Minimum Inhibitory Concentration (MIC) / Minimum bactericidal and fungicidal concentrations (MBC, MFC): – means non-active
Procedure, shortened: (§1)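 Broth microdilution, triplicate; media: Mueller-Hinton (bacteria), Sabouraud (C. albicans). MRSA-1 = patient isolate, chronic tonsillitis.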

[3] = test system: Staphylococcus aureus ATCC 6538 P FDA 209P; test: Antimicrobial activity, serial microdilutions, Sa; format: cell-based; settings: Staphylococcus aureus; for MIC: read-out: Minimum Inhibitory Concentration (MIC); for MBC: read-out: Minimum bactericidal and fungicidal concentrations (MBC, MFC)
Procedure, shortened: (§2)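 Compounds were serially diluted in broth: Mueller-Hinton for the bacterial strains, Sabouraud for the yeast. Each determination was done in triplicate.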

HuTu 80 [4] = settings: calculated relative to the cell line WI38 (a)
HuTu 80 [5] = test: cells; settings: Homo sapiens, HuTu80, 48 h, read-out: Cytotoxic Effects (IC50)
MCF-7 [6] = settings: calculated relative to the cell line WI38 (a)
Hep G2 [7] = test: cells; settings: Homo sapiens, HepG2, 48 h, read-out: Cytotoxic Effects (IC50)
PC3 = settings: calculated relative to the cell line WI38 (a)
MRSA-2 = test: Antimicrobial activity, serial microdilutions, MRSA-2; format: cell-based, S. aureus; settings: Staphylococcus aureus; for MIC: read-out: Minimum Inhibitory Concentration (MIC); for MBC: read-out: Minimum bactericidal and fungicidal concentrations (MBC, MFC)
Procedure, shortened: as §2

[8] = test system: Candida albicans ATCC 10231; test: Antimicrobial activity, serial microdilutions, Ca; format: cell-based; design: key to Minimum Inhibitory Concentration (MIC) / Minimum bactericidal and fungicidal concentrations (MBC, MFC): – means non-active; settings: Ca
Procedure, shortened: as §1

M-HeLa [9] = settings: calculated relative to the cell line WI38 (a)
M-HeLa [10] = test: cells; settings: Homo sapiens, 48 h, read-out: Cytotoxic Effects (IC50)
MCF-7 [11] = test: cells; settings: Homo sapiens, MCF7, 48 h, read-out: Cytotoxic Effects (IC50)
A549 [12] = test: cells; settings: Homo sapiens, A549, 48 h, read-out: Cytotoxic Effects (IC50)
A549 [13] = test system: A549
[14] = test system: Bacillus cereus ATCC 10702 NCTC 8035; test: Antimicrobial activity, serial microdilutions, Bc; format: cell-based; design: key to Minimum bactericidal and fungicidal concentrations (MBC, MFC): – means non-active; settings: for MIC / MBC: Bacillus cereus; for MIC: read-out: Minimum Inhibitory Concentration (MIC); for MBC: read-out: Minimum bactericidal and fungicidal concentrations (MBC, MFC)
Procedure, shortened: as §1

PANC-1 [15] = settings: calculated relative to the cell line WI38 (a)
SK-OV-3 [16] = settings: reference normal cell line not marked at the place (ns cells)
MRSA-1 = test: Antimicrobial activity, serial microdilutions, MRSA-1; format: cell-based, S. aureus; settings: Staphylococcus aureus; for MIC: read-out: Minimum Inhibitory Concentration (MIC); for MBC: read-out: Minimum bactericidal and fungicidal concentrations (MBC, MFC)
Procedure, shortened: as §1

PANC-1 [17] = test: cells; settings: Homo sapiens, PANC-1, 48 h, read-out: Cytotoxic Effects (IC50)
[18] = test system: Enterococcus faecalis ATCC 29212; test: Antimicrobial activity, serial microdilutions, Ef; format: cell-based; design: key to Minimum Inhibitory Concentration (MIC) / Minimum bactericidal and fungicidal concentrations (MBC, MFC): – means non-active; settings: for MIC: Enterococcus faecalis, ATCC29212, read-out: Minimum Inhibitory Concentration (MIC)
Procedure, shortened: as §2

T98G [19] = settings: calculated relative to the cell line WI38 (a)
DU-145 [20] = test: cells; settings: Homo sapiens, DU-145, 48 h, read-out: Cytotoxic Effects (IC50), DU-145, MTT assay, 48 h
[21] = test system: Pseudomonas aeruginosa ATCC 9027; test: Antimicrobial activity, serial microdilutions, Pa; format: cell-based; design: key to Minimum Inhibitory Concentration (MIC) / Minimum bactericidal and fungicidal concentrations (MBC, MFC): – means non-active
Procedure, shortened: as §1

Hep G2 [22] = test system: Hep G2
SK-OV-3 [23] = test: cells; settings: Homo sapiens, SK-OV-3, 48 h, read-out: Cytotoxic Effects (IC50)
T98G [24] = test: cells; settings: Homo sapiens, 48 h, read-out: Cytotoxic Effects (IC50)
[25] = reference normal cell line not marked at the place (ns cells)
[26] = calculated relative to the cell line WI38 (a)

Row | Compound | selectivity index (SI) (DU-145 [1]) | Minimum bactericidal and fungicidal concentrations (MBC, MFC) [2] | MIC [3] [µM] | MBC [3] [µM] | selectivity index (SI) (HuTu 80 [4]) | IC50 (HuTu 80 [5]) [µM] | selectivity index (SI) (MCF-7 [6]) | IC50 (Hep G2 [7]) [µM] | selectivity index (SI) (PC3) | MIC (MRSA-2) [µM] | MBC (MRSA-2) [µM] | Minimum Inhibitory Concentration (MIC) [8] | Minimum bactericidal and fungicidal concentrations (MBC, MFC) [8] | selectivity index (SI) (M-HeLa [9]) | IC50 (M-HeLa [10]) [µM] | IC50 (MCF-7 [11]) [µM] | IC50 (A549 [12]) [µM] | MIC ([14]; Bc) [µM] | selectivity index (SI) (PANC-1 [15]) | selectivity index (SI) (SK-OV-3 [16]) | further results
1 | CCCCCC[P+](c1ccccc1)(c1ccccc1)N(CC)CC [6a, (Diethylamino)(hexyl)diphenylphosphonium iodide] | 11 | – | 62.5 ± 5.5 | 125 ± 10 | 277 | 0.1 ± 0.007 | 1.6 | 34.4 ± 2.4 | 6.9 | 62.5 ± 5.6 | 62.5 ± 5.6 | – | – | 4.8 | 5.8 ± 0.4 | 17 ± 1.3 | 48.2 ± 3.4 | 31.3 ± 2.3 | 5.0 | ns (ns—no selectivity) | Minimum Inhibitory Concentration (MIC) [2]: –; selectivity index (SI) (A549 [13]; [25]): ns (ns—no selectivity); MBC [14]: 500 ± 46 µM; MIC (MRSA-1): 62.5 ± 5.3 µM; MBC (MRSA-1): 500 ± 47 µM; IC50 (PANC-1 [17]): 5.5 ± 0.4 µM; Minimum bactericidal and fungicidal concentrations (MBC, MFC) [18]: –; MIC [18]: 125 ± 11 µM; selectivity index (SI) (T98G [19]): 1.5; IC50 (DU-145 [20]): 2.6 ± 0.3 µM; Minimum Inhibitory Concentration (MIC) [21]: –; Minimum bactericidal and fungicidal concentrations (MBC, MFC) [21]: –; selectivity index (SI) (Hep G2 [22]; [25]): ns (ns—no selectivity); IC50 (SK-OV-3 [23]): 36.8 ± 2.6 µM; IC50 (T98G [24]): 18.4 ± 1.5 µM
2 | CCCCCCCC[P+](c1ccccc1)(c1ccccc1)N(CC)CC [6b, (Diethylamino)(octyl)diphenylphosphonium iodide] | 20 | – | 7.8 ± 0.6 | 125 ± 11 | 81 | 0.2 ± 0.01 | 1.7 | 11.6 ± 0.9 | 19 | 7.8 ± 0.6 | 31.3 ± 2.5 | – | – | 17 | 0.95 ± 0.08 | 9.5 ± 0.8 | 13 ± 1.1 | 3.9 ± 0.4 | 12 | ns (ns—no selectivity) | Minimum Inhibitory Concentration (MIC) [2]: –; selectivity index (SI) (A549 [13]; [26]): 1.2; Minimum bactericidal and fungicidal concentrations (MBC, MFC) ([14]; Bc): –; MIC (MRSA-1): 7.8 ± 0.6 µM; MBC (MRSA-1): 31.3 ± 2.6 µM; IC50 (PANC-1 [17]): 1.3 ± 0.1 µM; Minimum bactericidal and fungicidal concentrations (MBC, MFC) [18]: –; MIC [18]: 62.5 ± 5.5 µM; selectivity index (SI) (T98G [19]): 5.0; IC50 (DU-145 [20]): 0.8 ± 0.07 µM; Minimum Inhibitory Concentration (MIC) [21]: –; Minimum bactericidal and fungicidal concentrations (MBC, MFC) [21]: –; selectivity index (SI) (Hep G2 [22]; [26]): 1.4; IC50 (SK-OV-3 [23]): 17.6 ± 1.4 µM; IC50 (T98G [24]): 3.4 ± 0.2 µM
3 | CCCCCCCC[P+](c1ccccc1)(c1ccccc1)c1ccccc1 [compound 8, Octyltriphenylphosphonium iodide, reference compound] | 23 | – | 0.9 ± 0.07 | 62.5 ± 5.3 | 102 | 0.09 ± 0.006 | 2.2 | 1.6 ± 0.1 | 23 | 3.9 ± 0.3 | 15.6 ± 1.3 | – | – | 20 | 0.45 ± 0.04 | 4.2 ± 0.3 | 8.7 ± 0.7 | 0.9 ± 0.07 | 31 | ns (ns—no selectivity) | MIC ([2]; Escherichia coli, ATCC25922, read-out: Minimum Inhibitory Concentration (MIC)): 500 ± 47 µM; selectivity index (SI) (A549 [13]; [26]): 1.1; MBC [14]: 500 ± 47 µM; MIC (MRSA-1): 1.9 ± 0.1 µM; MBC (MRSA-1): 15.6 ± 1.2 µM; IC50 (PANC-1 [17]): 0.3 ± 0.02 µM; Minimum bactericidal and fungicidal concentrations (MBC, MFC) [18]: –; MIC [18]: 15.6 ± 1.2 µM; selectivity index (SI) (T98G [19]): 15; IC50 (DU-145 [20]): 0.4 ± 0.03 µM; Minimum Inhibitory Concentration (MIC) [21]: –; Minimum bactericidal and fungicidal concentrations (MBC, MFC) [21]: –; selectivity index (SI) (Hep G2 [22]; [26]): 5.8; IC50 (SK-OV-3 [23]): 9.8 ± 0.7 µM; IC50 (T98G [24]): 0.6 ± 0.05 µM
